Each structure is given as a SMILES string.

The text below walks through data of patent US20240247042A1, “GLUCAGON LIKE PEPTIDE COMPOUNDS” (Novartis AG, priority 2021, published 2024).

What all share (type): cell-based
In assay [1] the target is T1, human GLP1R (Homo sapiens, UniProt P43220). Put plainly: Human GLP1R DERET recycling assay. To be noted: for Receptor recycled mean: maximum receptor recycled as proportion of amount internalized; for T1/2 mean: rate at which receptor recycled back to the membrane after Exendin 9-39.
Experimental: The extent to which agonists internalize or allow recycling of the human GLP1R was determined based on an optimized version of a RealTime FRET-based ‘DERET’ (Dissociation Enhanced Resonance Energy Transfer) assay. The technology relies on labeling of the SNAP-tagged GPCR with a SNAP-Lumi-Terbium (donor fluorophore, Cisbio, cat #SSNPTBD). The compounds are incubated with the cells over-expressing the GPCR of interest in the presence of an excess of fluorescein (acceptor fluorophore). When the GPCR is on the cell surface, the donor signal is quenched by the acceptor and the donor/acceptor ratio is low. As the GPCR internalizes, the donor signal is no longer quenched, and the acceptor is no longer excited so the donor/acceptor ratio increases. The addition of an excess of antagonist blocks further receptor internalization, allowing the receptor to recycle back to the membrane leading to a subsequent reduction in the donor/acceptor ratio. […] To generate triplicate dose response curves, compounds were serially diluted 3-fold in assay buffer, then added to the cell assay plate to a final volume of 40 μL and final top concentrations starting at 3 μM or less (depending on the case). […] EC0 wells with buffer only were also included. The plate FRET fluorescence was measured immediately using a Perkin Elmer Envision with LANCE/DELFIA D400 single mirror, excitation filter X320, and emission filters M615_203 (donor emission) and M515 (acceptor emission), and then measured every 30 min. […] Plates were kept at 37° C. between reads. Data was expressed as the ratio of donor/acceptor emissions using Microsoft Excel and plotted in GraphPad Prism.
Using this model, we determined a T1/2 rate at which the receptor recycled back to the membrane. We also determined a maximum percentage of receptor recycled as a proportion of the amount internalized initially.
The lower the internalization rate and the faster the receptor recycling rate the more the receptor is retained at the membrane.
In assay [2] the target is T1, human GLP1R. Put plainly: Human GLP1R DERET internalization assay.
The target in assay [3] is T2, human GLP1R (hGLP1R) (Homo sapiens, UniProt P43220). Put plainly: Human GLP1R β-arrestin recruitment assay (PathHunter). On the set-up: GeneArt (insert) 93-0164 (CHO-K1-EA parental cells); 93-0491 (pCMV PK vector bundle); host or cells: PathHunter CHO-K1-EA parental cells, single clone 1.
Target sequence in this assay (P43220 24-463): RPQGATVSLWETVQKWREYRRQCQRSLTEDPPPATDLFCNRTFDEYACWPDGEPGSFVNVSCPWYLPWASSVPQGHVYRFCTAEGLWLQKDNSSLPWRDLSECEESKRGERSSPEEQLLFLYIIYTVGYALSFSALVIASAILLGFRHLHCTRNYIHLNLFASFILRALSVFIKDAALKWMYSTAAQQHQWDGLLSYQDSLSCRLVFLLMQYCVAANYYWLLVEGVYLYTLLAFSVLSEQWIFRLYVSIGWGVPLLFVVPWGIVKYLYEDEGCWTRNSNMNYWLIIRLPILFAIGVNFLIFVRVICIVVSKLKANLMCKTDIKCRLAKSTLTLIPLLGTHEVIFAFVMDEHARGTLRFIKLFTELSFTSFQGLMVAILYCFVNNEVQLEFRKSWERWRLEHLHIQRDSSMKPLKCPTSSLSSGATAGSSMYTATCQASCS
Target sequence in this assay (P32121 whole entry partner): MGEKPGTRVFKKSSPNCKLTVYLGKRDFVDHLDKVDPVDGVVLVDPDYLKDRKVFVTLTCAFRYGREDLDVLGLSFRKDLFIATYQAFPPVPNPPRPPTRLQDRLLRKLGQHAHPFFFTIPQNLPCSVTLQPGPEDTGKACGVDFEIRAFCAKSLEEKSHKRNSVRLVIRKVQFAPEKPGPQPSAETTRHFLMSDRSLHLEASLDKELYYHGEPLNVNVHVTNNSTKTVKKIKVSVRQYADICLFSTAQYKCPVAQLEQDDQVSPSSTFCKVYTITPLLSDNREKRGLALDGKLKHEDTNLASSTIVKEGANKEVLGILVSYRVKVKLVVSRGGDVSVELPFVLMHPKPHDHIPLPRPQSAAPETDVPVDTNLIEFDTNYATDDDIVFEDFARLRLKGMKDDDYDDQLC
Experimental: The extent to which agonists recruited β-arrestin was measured using the PathHunter® β-arrestin assay (DiscoverX). This assay measures binding of β-arrestin to the receptor using an enzyme complementation approach. […] When β-arrestin is recruited to the receptor the enzyme becomes active and generates luminescence in the presence of a chemiluminescent substrate (PathHunter® Detection Kit, DiscoverX cat #93-0001). Luminescence can be measured on a relevant detector. […] The following day, agonists were prepared at 5 times the final required concentration. To generate triplicate dose response curves, compounds were serially diluted 3-fold in assay buffer (HBSS, 10 mM Hepes and 0.1% BSA), then added to the cell assay plate to a final volume of 25 μL and final top concentrations starting at 3 μM or less, depending on the compound. […] The plate was incubated at 37° C., 5% CO2 with humidity for 2 h after adding the compounds to the cells. […] The plate was incubated for an additional hour in the dark at RT. […] Curve fitting for EC50 determinations was performed using GraphPad Prism. The 4-parameter logistic model, Hill slope was used: Y=Bottom+(Top−Bottom)/(1+10^((Log EC50−X)*Hill Slope)), where Y is the functional response; X is the compound concentration; bottom is A0 or the minimum value (at 0 dose); top is Ainf or the maximum value (at infinite dose); EC50 is the point of inflection (i.e., the point on the sigmoid shaped curve halfway between A0 and Ainf). The EC50 value was calculated in μM.
Assay [4] has as its target T2, human GLP1R (hGLP1R). Put plainly: Human GLP1R cAMP agonist assay (GloSensor).
Target sequence in this assay (P43220 24-463): as the sequence (P43220 24-463) above
Experimental: Compounds described herein were tested in the following cellular assays that measures the intracellular cAMP concentration. The cAMP is generated by the activation of GLP1R. EC50 is defined as the concentration of the compound that leads to half of the maximum response (after baseline correction).
The agonist activity of compounds was determined using the GloSensor™ cAMP Assay (Promega Corp.), which measures changes in the intracellular concentration of cAMP after ligand activation of GPCRs. The assay uses a biosensor encoded by pGloSensor™-22F cAMP plasmid (Promega, cat #E2301) with cAMP binding domains fused to a mutant form of Photinus pyralis luciferase. Binding to cAMP causes conformational changes that promote large increases in light output, which can be measured by a luminescence detector. […] The assay was started the following morning by adding an equal volume of CO2-independent media containing 4% v/v dilution of the GloSensor substrate (Promega, cat #E1291) to all wells. The cell plate was incubated at RT for 2 h in the dark. The Biomek i7 (Beckman Coulter) instrument was used for the liquid handling steps. To generate duplicate dose response curves, 3-fold serially diluted compounds were added in to the cell assay plate to a final volume of 60 μL with final concentrations ranging from 100 nM through 0.03 pM in CO2-independent media containing 0.1% BSA, 0.5 mM IBMX and 0.4% DMSO. […] Curve fitting for EC50 determinations was performed in the Helios module of the software package DAVID. The 4-parameter logistic model, Hill slope was used: y=Ainf+(A0−Ainf)/(1+(x/AC50)^Hill Slope), where y is the functional response; x is the compound concentration; A0 is the minimum value (at 0 dose); Ainf is the maximum value (at infinite dose); AC50 corresponds to the point of inflection (i.e., the point on the sigmoid shaped curve halfway between A0 and Ainf). The EC50 value was represented by the AC50 value calculated from Helios in μM. Emax is the maximal activity detected within the concentration range, derived from the fitted curve.
The HEK293-SNAP-hGLP1R stable cell clone that yielded the desired response was used for human GLP1R cAMP agonist assay.

T1 sequence (P43220 24-463): as above

In the case of `CCCCCCCCCCC[C@](CCCCCCCCCCC(=O)O)(C(=O)O)C(=O)NCCOCCOCCOCCOCCOCCOCCOCCOCCOCCOCCOCCOCCOCCOCCOCCOCCOCCOCCOCCOCCOCCOCCOCCOCCC(=O)NCCCC[C@H](NC(=O)[C@H](C)NC(=O)[C@H](C)NC(=O)[C@H](CCC(N)=O)NC(=O)CNC(=O)[C@H](CCC(=O)O)NC(=O)[C@H](CC(C)C)NC(=O)[C@H](Cc1ccc(O)cc1)NC(=O)[C@H](CO)NC(=O)[C@H](CO)NC(=O)[C@@H](NC(=O)[C@H](CC(=O)O)NC(=O)[C@H](CO)NC(=O)[C@@H](NC(=O)[C@H](Cc1ccccc1)NC(=O)[C@@H](NC(=O)CNC(=O)[C@H](CCC(=O)O)NC(=O)C(C)(C)NC(=O)[C@@H](N)Cc1c[nH]cn1)[C@@H](C)O)[C@@H](C)O)C(C)C)C(=O)N[C@@H](CCC(=O)O)C(=O)N[C@@H](Cc1ccccc1)C(=O)N[C@H](C(=O)N[C@@H](C)C(=O)N[C@@H](Cc1c[nH]c2ccccc12)C(=O)N[C@@H](CC(C)C)C(=O)N[C@H](C(=O)N[C@@H](CCCNC(=N)N)C(=O)NCC(=O)N[C@@H](CCCNC(=N)N)C(=O)NCC(=O)O)C(C)C)[C@@H](C)CC` [Compound 3], at human GLP1R [1], the Receptor recycled mean stood at 69% and the T1/2 mean worked out at 1.24 h.

On human GLP1R [2], `CC[C@H](C)[C@H](NC(=O)[C@H](Cc1ccccc1)NC(=O)[C@H](CCC(=O)O)NC(=O)[C@H](CCCCNC(=O)CCOCCOCCOCCOCCOCCOCCOCCOCCOCCOCCOCCOCCOCCOCCOCCOCCOCCOCCOCCOCCOCCOCCOCCOCCNC(=O)C(CCCCCCCCCCCC(=O)O)(CCCCCCCCCCCC(=O)O)C(=O)O)NC(=O)[C@H](C)NC(=O)[C@H](C)NC(=O)[C@H](CCC(N)=O)NC(=O)CNC(=O)[C@H](CCC(=O)O)NC(=O)[C@H](CC(C)C)NC(=O)[C@H](Cc1ccc(O)cc1)NC(=O)[C@H](CO)NC(=O)[C@H](CO)NC(=O)[C@@H](NC(=O)[C@H](CC(=O)O)NC(=O)[C@H](CO)NC(=O)[C@@H](NC(=O)[C@H](Cc1ccccc1)NC(=O)[C@@H](NC(=O)CNC(=O)[C@H](CCC(=O)O)NC(=O)C(C)(C)NC(=O)[C@@H](N)Cc1c[nH]cn1)[C@@H](C)O)[C@@H](C)O)C(C)C)C(=O)N[C@@H](C)C(=O)N[C@@H](Cc1c[nH]c2ccccc12)C(=O)N[C@@H](CC(C)C)C(=O)N[C@H](C(=O)N[C@@H](CCCNC(=N)N)C(=O)NCC(=O)N[C@@H](CCCNC(=N)N)C(=O)NCC(=O)O)C(C)C` [Compound 7] displayed a maximum response (Emax) of 77%. On human GLP1R (hGLP1R) [3], the Emax turned out to be 82%. On human GLP1R [1], this compound had a Receptor recycled mean of 71% and a T1/2 mean of 1.27 h.

Regarding `CC[C@H](C)[C@H](NC(=O)[C@H](Cc1ccccc1)NC(=O)[C@H](CCC(=O)O)NC(=O)[C@H](CCCCNC(=O)CCOCCOCCOCCOCCOCCOCCOCCOCCOCCOCCOCCOCCOCCOCCOCCOCCOCCOCCOCCOCCOCCOCCOCCOCCNC(=O)C(CCCCCCCCCCCCCCC(=O)O)(CCCCCCCCCCCCCCC(=O)O)C(=O)O)NC(=O)[C@H](C)NC(=O)[C@H](C)NC(=O)[C@H](CCC(N)=O)NC(=O)CNC(=O)[C@H](CCC(=O)O)NC(=O)[C@H](CC(C)C)NC(=O)[C@H](Cc1ccc(O)cc1)NC(=O)[C@H](CO)NC(=O)[C@H](CO)NC(=O)[C@@H](NC(=O)[C@H](CC(=O)O)NC(=O)[C@H](CO)NC(=O)[C@@H](NC(=O)[C@H](Cc1ccccc1)NC(=O)[C@@H](NC(=O)CNC(=O)[C@H](CCC(=O)O)NC(=O)C(C)(C)NC(=O)[C@@H](N)Cc1c[nH]cn1)[C@@H](C)O)[C@@H](C)O)C(C)C)C(=O)N[C@@H](C)C(=O)N[C@@H](Cc1c[nH]c2ccccc12)C(=O)N[C@@H](CC(C)C)C(=O)N[C@H](C(=O)N[C@@H](CCCNC(=N)N)C(=O)NCC(=O)N[C@@H](CCCNC(=N)N)C(=O)NCC(=O)O)C(C)C` [Compound 9], the maximal effect (Emax) on human GLP1R [2] stood at 22%; at human GLP1R (hGLP1R) [3] it was 37%; on human GLP1R (hGLP1R) [4], 107%. For the same compound, the EC50 on human GLP1R [2] (receptor internalization, HEK293-SNAP-hGLP1R-GloSensor cells) is greater than 1000 nM; at human GLP1R (hGLP1R) [3] (CHO-hGLP1R-β-arrestin cells), greater than 2000 nM.

With `CCCCCCCCCCCC(CCCCCCCCCCC(=O)O)(C(=O)O)C(=O)NCCOCCOCCOCCOCCOCCOCCOCCOCCOCCOCCOCCOCCOCCOCCOCCOCCOCCOCCOCCOCCOCCOCCOCCOCCC(=O)NCCCC[C@H](NC(=O)[C@H](C)NC(=O)[C@H](C)NC(=O)[C@H](CCC(N)=O)NC(=O)CNC(=O)[C@H](CCC(=O)O)NC(=O)[C@H](CC(C)C)NC(=O)[C@H](Cc1ccc(O)cc1)NC(=O)[C@H](CO)NC(=O)[C@H](CO)NC(=O)[C@@H](NC(=O)[C@H](CC(=O)O)NC(=O)[C@H](CO)NC(=O)[C@@H](NC(=O)[C@H](Cc1ccccc1)NC(=O)[C@@H](NC(=O)CNC(=O)[C@H](CCC(=O)O)NC(=O)C(C)(C)NC(=O)[C@@H](N)Cc1c[nH]cn1)[C@@H](C)O)[C@@H](C)O)C(C)C)C(=O)N[C@@H](CCC(=O)O)C(=O)N[C@@H](Cc1ccccc1)C(=O)N[C@H](C(=O)N[C@@H](C)C(=O)N[C@@H](Cc1c[nH]c2ccccc12)C(=O)N[C@@H](CC(C)C)C(=O)N[C@H](C(=O)N[C@@H](CCCNC(=N)N)C(=O)NCC(=O)N[C@@H](CCCNC(=N)N)C(=O)NCC(=O)O)C(C)C)[C@@H](C)CC` (some centres unmarked) [Compound 1], the Receptor recycled mean on human GLP1R [1] turned out to be 65%. At human GLP1R (hGLP1R) [4], this compound returned an Emax of 105%.

The compound `CC[C@H](C)[C@H](NC(=O)[C@H](Cc1ccccc1)NC(=O)[C@H](CCC(=O)O)NC(=O)[C@H](CCCCNC(=O)CCOCCOCCOCCOCCOCCOCCOCCOCCOCCOCCOCCOCCOCCOCCOCCOCCOCCOCCOCCOCCOCCOCCOCCOCCNC(=O)C(CCCCCCCCCCCCCC(=O)O)(CCCCCCCCCCCCCC(=O)O)C(=O)O)NC(=O)[C@H](C)NC(=O)[C@H](C)NC(=O)[C@H](CCC(N)=O)NC(=O)CNC(=O)[C@H](CCC(=O)O)NC(=O)[C@H](CC(C)C)NC(=O)[C@H](Cc1ccc(O)cc1)NC(=O)[C@H](CO)NC(=O)[C@H](CO)NC(=O)[C@@H](NC(=O)[C@H](CC(=O)O)NC(=O)[C@H](CO)NC(=O)[C@@H](NC(=O)[C@H](Cc1ccccc1)NC(=O)[C@@H](NC(=O)CNC(=O)[C@H](CCC(=O)O)NC(=O)C(C)(C)NC(=O)[C@@H](N)Cc1c[nH]cn1)[C@@H](C)O)[C@@H](C)O)C(C)C)C(=O)N[C@@H](C)C(=O)N[C@@H](Cc1c[nH]c2ccccc12)C(=O)N[C@@H](CC(C)C)C(=O)N[C@H](C(=O)N[C@@H](CCCNC(=N)N)C(=O)NCC(=O)N[C@@H](CCCNC(=N)N)C(=O)NCC(=O)O)C(C)C` [Compound 8] registered an Emax at human GLP1R (hGLP1R) [4] of 106%.

On human GLP1R [1], `CCCCCCCCCCC[C@@](CCCCCCCCCCC(=O)O)(C(=O)O)C(=O)NCCOCCOCCOCCOCCOCCOCCOCCOCCOCCOCCOCCOCCOCCOCCOCCOCCOCCOCCOCCOCCOCCOCCOCCOCCC(=O)NCCCC[C@H](NC(=O)[C@H](C)NC(=O)[C@H](C)NC(=O)[C@H](CCC(N)=O)NC(=O)CNC(=O)[C@H](CCC(=O)O)NC(=O)[C@H](CC(C)C)NC(=O)[C@H](Cc1ccc(O)cc1)NC(=O)[C@H](CO)NC(=O)[C@H](CO)NC(=O)[C@@H](NC(=O)[C@H](CC(=O)O)NC(=O)[C@H](CO)NC(=O)[C@@H](NC(=O)[C@H](Cc1ccccc1)NC(=O)[C@@H](NC(=O)CNC(=O)[C@H](CCC(=O)O)NC(=O)C(C)(C)NC(=O)[C@@H](N)Cc1c[nH]cn1)[C@@H](C)O)[C@@H](C)O)C(C)C)C(=O)N[C@@H](CCC(=O)O)C(=O)N[C@@H](Cc1ccccc1)C(=O)N[C@H](C(=O)N[C@@H](C)C(=O)N[C@@H](Cc1c[nH]c2ccccc12)C(=O)N[C@@H](CC(C)C)C(=O)N[C@H](C(=O)N[C@@H](CCCNC(=N)N)C(=O)NCC(=O)N[C@@H](CCCNC(=N)N)C(=O)NCC(=O)O)C(C)C)[C@@H](C)CC` [Compound 2] showed a Receptor recycled mean of 68% and a T1/2 mean of 1.19 h. In addition, on human GLP1R (hGLP1R) [4], the Emax was 115%.
